Measurements: patent US6995140B1, “Peptides and polypeptides useful for regenerating the nervous system” (NUCLEICA, priority 1997, dated 2006)
Where no end group is shown, it is not given here.

Columns and labels:
[1] = tested on: cortical neuronal cells; assay: Dissociated cell cultures of cerebral hemispheres of 8-day old chicken embryos (cortical neurons); format: cell-based; details: for overall effect on cortical neuron cultures (aggregation, adhesion, neuritic growth): in comparison with peptide SEQ ID NO: 8; for adherent cells carrying neurites relative to controls (controls 24.4%): 4 days of culture
Protocol: Dissociated Cell Cultures of Cerebral Hemispheres of 8-Day Old Chicken Embryos
The neuronal cultures are obtained from 8-day old chicken embryos. The cerebral hemispheres, after removing the meninges, are cut into small pieces and enzymatically dissociated with 0.25% of trypsin in a PBS saline buffer free of calcium and of magnesium for 15 minutes at 37° C.
The cells are centrifuged at 200 g for 5 minutes in DMEM medium with 20% FCS for the trypsin inactivation. The cells are then filtered on nylon membrane (pore size: 48 microns) and collected in a chemically defined medium free of serum containing a 1/1 mixture of DMEM and Ham's F12 medium supplemented with glutamine (4 mM), glucose (33 mM), penicillin G (50 U/ml), streptomycin sulfate (50 μg/ml) and an N2 supplement of Bottenstein and Sato (1979): putrescine (100 μM), sodium selenite (30 nM), human transferrin (50 μg/ml), progesterone (20 nM), insulin (5 μg/ml) and β-estradiol (1 pM). All the N2 supplements were bought from Sigma.
The cells are plated at a density of 7.5×10^4 cells/cm^2 on 24-well plastic plates. For some experiments, the plastic plates are coated either with fibronectin (24 μg/ml) or with thrombospondin (20 μg/ml). The cultures are incubated at 37° C. and under air containing 10% CO2. The medium is not changed during the experiment. These cultures consist of nearly 95% of neurons.
Moreover, the effect of the peptides according to the present invention SEQ ID NO: 8 and NO: 11 on cultures at low density was studied.

[2] = tested on: spinal cord neurons; assay: Cell cultures of spinal neurons; format: cell-based, chicken; details: compared with controls
Protocol: Cell Cultures of Spinal Neurons
The spinal cords of 6-day old chicken embryos are dissected, freed of their meningeal membrane and cut into small pieces in a phosphate buffer (PBS) free of calcium and of magnesium. After incubation with 0.25% trypsin for 10 minutes at 37° C., the tissue is centrifuged at 200 g for 4 minutes in a growth medium containing 20% fetal calf serum in order to stop the trypsinization. The cells are then dissociated by repeated trituration using a Pasteur pipette and resuspended in a chemically defined medium free of serum as above.
The cells are plated at a density of 7.5×10^4 cells/cm^2 on 24-well plastic culture plates. The cultures are incubated at 37° C. and under air containing 10% CO2. The medium is not changed during the experiments and it has already been shown that this type of cell population contained more than 93% of neurons.

[3] = Solubility of the peptide; format: physicochemical; details: basic aqueous medium
[4] = tested on: NIB104 neuroblastoma cells; assay: Culture of cells derived from the NIB104 neuroblastoma; format: cell-based
Protocol: The cells derived from the NIB104 neuroblastoma were cultured in 24-well plastic plates previously coated with a film of poly-L-lysine, under conditions similar to those for the primary cultures.

[5] = low density culture, morphometric analysis
[6] = morphometric analysis, plastic, versus control
[7] = plates coated with thrombospondin and fibronectin, compared with the controls

Substance | overall effect on cortical neuron cultures (aggregation, adhesion, neuritic growth) [1] | adherent cells carrying neurites relative to controls (controls 24.4%) ([1]; low density culture) [times] | number of neurites per cell [1, 5] | neuritic growth and fasciculation of the neurites [2] | number of synaptic contacts between the neurites [2] | distribution (aggregation) of the neurons ([2]; in vitro) | morphology of the neuronal culture ([1]; after 5 days of culture, plastic substrate coated with the peptide) | increase in the number of neuronal aggregates ([1]; between control culture and culture treated with the peptide) [%] | length of the neurites [1, 5] | length of the neurites per aggregate [1, 6] | number of neurites per aggregate [1, 6] | length of the neurites per aggregate [1, 7] | number of neurites per aggregate [1, 7] | adhesion of the cells to the substrate ([1]; substrate coated with the peptide, 5 days of culture, versus control without peptide) | solubility [3] | appearance (phenotype) of the cells ([4]; in the presence of the peptide) | neuritic growth ([4]; increasing concentrations of peptide in the culture medium, morphometric analysis) | number of NIB104 neuroblastoma cells ([4]; versus control cultures)
R-K-A-R- (RKAR) [peptide SEQ ID NO: 13, peptide for comparison, reference compound] | no representative result | – | – | – | – | – | – | – | – | – | – | – | – | – | – | – | – | –
W-G-P-C-S-V-S-C-G- (WGPCSVSCG) [peptide SEQ ID NO: 11, second peptide according to the invention] | lower but, nevertheless, significant results | 2.5 | not | – | – | – | – | – | – | – | – | – | – | – | – | – | – | –
WSGWSSCSRSCG (cysteine pairing not given here) [peptide SEQ ID NO: 8] | – | 2 | significant increase | prominent neuritic growths forming a network without fasciculation of the neurites | increase in the number of synaptic contacts | remain distributed for at least one week | aggregate and are essentially connected by bundles of long and thick neurites | 9.3 | significant increase | significant increase | significant increase | significantly increased | significantly increased | adhere well to the substrate | soluble in basic aqueous medium | acquire a characteristic neuronal phenotype | gradually increases | considerably less numerous
